Read-outs that look alike come from different tables or passages of the source.
What was measured:
[1] = target: T1, SLC35G3 (Homo sapiens, UniProt Q8N808); assay: Uptake ratio screen, SLC35G3-overexpressing HEK293 over empty vector cells; type: cell-based; parameters: by amplifying the entire gene-of-interest within the HEK293 genome via a long-range PCR
[2] = target: SLC38A10 (Homo sapiens, UniProt Q9HBR0); conditions: for Vmax (±SEM): SLC38A10, HEK293, net uptake over empty vector cells
[3] = target: T2, SLC22A15 (Homo sapiens, UniProt Q8IZD6); assay: Uptake ratio screen, SLC22A15-overexpressing HEK293 over empty vector cells; type: cell-based; conditions: 2.5 μM (nicotine 10 μM), 2 min
T2 construct: by amplifying the entire gene-of-interest within the HEK293 genome via a long-range PCR
Description: (§1) Typically discussed substrates of the proton organic-cation antiporter ([14]) are highlighted in dark green in Figure 1.
(§2) In preparation for transport experiments, 24-well plates were pre-coated with poly-D-lysine (Sigma-Aldrich) and 300,000 cells were plated per well and incubated for 48 h. Firstly, the 24-well plate was placed on a heating plate at 37 °C, and the cells were washed with 37 °C HBSS^+ buffer (Hank’s balanced salt solution supplemented with 10 mM Hepes and adjusted to pH 7.4; Thermo Fisher Scientific). The substance-of-interest, which was diluted in 37 °C HBSS^+ to a desired concentration, was added to the cells for exactly 2 min. […] The uptake was stopped with ice-cold HBSS^+, and the 24-well plate was removed from the heating plate. The cells were washed twice with the cold HBSS^+ before they were lysed for 15 min with 80% (v/v) acetonitrile containing the respective internal standard for mass spectrometry. For variations in seeded cell numbers between the cell lines, several wells were lysed in RIPA buffer and used for total protein quantification using a bicinchoninic assay ([74]) and bovine serum albumin as calibration.
(§3) The intracellular drug concentrations after transport experiments were analyzed by high-performance liquid chromatography coupled to tandem mass spectrometry analysis. The HPLC consisted of a Shimadzu Nexera HPLC System with a SIL-30AC autosampler, a LC-30AD pump, a CTO-20AC column oven, and a CBM-20A controller (Shimadzu). The reverse-phase chromatography of compounds was accomplished with a Brownlee SPP RP-Amide column with 4.6 × 100 mm inner dimensions, a particle size of 2.7 μm, and a preceding Phenomenex C-18 guard column. The mobile phase was composed of an organic additive with acetonitrile:methanol 6:1 (v/v) in total concentrations between 3% and 50% (v/v) and 0.1% (v/v) formic acid in the aqueous component of the eluent. During separation, the column oven was held at 40 °C and the mobile phase was maintained at a flow rate of 300 or 400 μl/min. After separation, the detection of substances was performed with an API 4000 tandem mass spectrometer (AB SCIEX, https://sciex.com/support/software-support/software-downloads), followed by quantification of results with the Analyst software (AB SCIEX, version 1.6.2). The composition of chromatographic conditions, as well as detailed mass spectrometric detection parameters, are listed in Table S5.
(§4) Transport-mediated net uptake was determined as fold-increase of transporter-overexpressing cells over empty vector–transfected control cells.

[4] = target: T3, SLC35F2 (Homo sapiens, UniProt Q8IXU6); conditions: SLC35F2; ratio of Vmax over KM
T3 sequence (Q8IXU6 1-374): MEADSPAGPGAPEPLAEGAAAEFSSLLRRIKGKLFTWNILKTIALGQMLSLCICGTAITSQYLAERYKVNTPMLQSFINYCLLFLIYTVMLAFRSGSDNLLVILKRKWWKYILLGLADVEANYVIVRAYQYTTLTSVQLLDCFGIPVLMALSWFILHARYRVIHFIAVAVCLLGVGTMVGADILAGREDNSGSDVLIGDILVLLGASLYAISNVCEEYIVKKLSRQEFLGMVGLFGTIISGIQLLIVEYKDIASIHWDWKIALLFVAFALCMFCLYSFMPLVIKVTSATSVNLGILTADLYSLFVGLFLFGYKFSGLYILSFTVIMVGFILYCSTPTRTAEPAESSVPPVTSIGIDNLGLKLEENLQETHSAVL

[5] = target: T4, SLC35E2A (Homo sapiens, UniProt P0CK97); assay: Uptake ratio screen, SLC35E2A-overexpressing HEK293 over empty vector cells; type: cell-based; parameters: by amplifying the entire gene-of-interest within the HEK293 genome via a long-range PCR; conditions: 2.5 μM, 2 min
Description: as §1, §2
(§5) The intracellular drug concentrations after transport experiments were analyzed by high-performance liquid chromatography coupled to tandem mass spectrometry analysis. The HPLC consisted of a Shimadzu Nexera HPLC System with a SIL-30AC autosampler, a LC-30AD pump, a CTO-20AC column oven, and a CBM-20A controller (Shimadzu). The reverse-phase chromatography of compounds was accomplished with a Brownlee SPP RP-Amide column with 4.6 × 100 mm inner dimensions, a particle size of 2.7 μm, and a preceding Phenomenex C-18 guard column. […] After separation, the detection of substances was performed with an API 4000 tandem mass spectrometer (AB SCIEX, https://sciex.com/support/software-support/software-downloads), followed by quantification of results with the Analyst software (AB SCIEX, version 1.6.2). […]
as §4

[6] = target: T5, SLC35F4 (Homo sapiens, UniProt A4IF30); assay: Uptake ratio screen, SLC35F4-overexpressing HEK293 over empty vector cells; type: cell-based; parameters: by amplifying the entire gene-of-interest within the HEK293 genome via a long-range PCR; conditions: 2.5 μM, 2 min
T5 sequence (A4IF30 1-521): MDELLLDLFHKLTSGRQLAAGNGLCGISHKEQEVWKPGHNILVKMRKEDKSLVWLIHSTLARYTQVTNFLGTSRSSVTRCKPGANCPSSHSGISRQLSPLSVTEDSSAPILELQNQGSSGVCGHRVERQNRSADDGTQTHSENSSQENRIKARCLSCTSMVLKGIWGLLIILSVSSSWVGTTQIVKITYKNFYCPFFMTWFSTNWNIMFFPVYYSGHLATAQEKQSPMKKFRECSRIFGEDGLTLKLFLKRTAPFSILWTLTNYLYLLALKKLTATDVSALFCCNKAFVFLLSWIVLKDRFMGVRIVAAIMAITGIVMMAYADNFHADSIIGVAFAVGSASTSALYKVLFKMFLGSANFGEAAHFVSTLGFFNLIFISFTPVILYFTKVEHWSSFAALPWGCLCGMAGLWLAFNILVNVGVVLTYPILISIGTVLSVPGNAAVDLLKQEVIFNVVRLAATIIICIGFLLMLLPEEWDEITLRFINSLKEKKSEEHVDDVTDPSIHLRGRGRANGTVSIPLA
Description: as §1, §2, §3, §4

[7] = target: T6, SLC35F5 (Homo sapiens, UniProt Q8WV83); assay: Uptake ratio screen, SLC35F5-overexpressing HEK293 over empty vector cells; type: cell-based; parameters: by amplifying the entire gene-of-interest within the HEK293 genome via a long-range PCR; conditions: 2.5 μM, 2 min
T6 sequence (Q8WV83 1-523): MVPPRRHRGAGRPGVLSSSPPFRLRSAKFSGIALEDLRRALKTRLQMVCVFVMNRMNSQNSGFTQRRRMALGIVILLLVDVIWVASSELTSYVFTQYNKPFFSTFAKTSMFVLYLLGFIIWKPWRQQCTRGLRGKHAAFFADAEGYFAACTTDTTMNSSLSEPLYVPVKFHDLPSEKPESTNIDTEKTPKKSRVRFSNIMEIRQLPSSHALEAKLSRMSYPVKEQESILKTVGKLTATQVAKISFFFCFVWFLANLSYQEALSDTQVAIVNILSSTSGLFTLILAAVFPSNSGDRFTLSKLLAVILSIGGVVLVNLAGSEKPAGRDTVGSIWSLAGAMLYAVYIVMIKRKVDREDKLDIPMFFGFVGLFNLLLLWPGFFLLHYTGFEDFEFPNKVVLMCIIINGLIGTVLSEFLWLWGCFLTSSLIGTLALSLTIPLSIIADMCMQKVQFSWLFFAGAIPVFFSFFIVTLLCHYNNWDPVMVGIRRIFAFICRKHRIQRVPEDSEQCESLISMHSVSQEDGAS
Description: as §1, §2, §3, §4

[8] = target: T1, SLC35G3; conditions: ratio of Vmax over KM
[9] = target: T4, SLC35E2A; conditions: ratio of Vmax over KM
[10] = system: hCMEC/D3 cell line; assay: Antiport (exchange) of diphenhydramine and nalmefene in hCMEC/D3 cells; type: cell-based, human; conditions: hCMEC/D3 preloaded with DPH, within 2 min, unpublished data
[11] = target: T7, SLC19A3 (Homo sapiens, UniProt Q9BZV2); assay: Uptake ratio screen, SLC19A3-overexpressing HEK293 over empty vector cells; type: cell-based; conditions: 2.5 μM, 2 min
T7 construct: expressed in transfected cells
Description: as §1
(§6) In preparation for transport experiments, 24-well plates were pre-coated with poly-D-lysine (Sigma-Aldrich) and 300,000 cells were plated per well and incubated for 48 h. Firstly, the 24-well plate was placed on a heating plate at 37 °C, and the cells were washed with 37 °C HBSS^+ buffer (Hank’s balanced salt solution supplemented with 10 mM Hepes and adjusted to pH 7.4; Thermo Fisher Scientific). The substance-of-interest, which was diluted in 37 °C HBSS^+ to a desired concentration, was added to the cells for exactly 2 min. […] For variations in seeded cell numbers between the cell lines, several wells were lysed in RIPA buffer and used for total protein quantification using a bicinchoninic assay ([74]) and bovine serum albumin as calibration.
(§7) The intracellular drug concentrations after transport experiments were analyzed by high-performance liquid chromatography coupled to tandem mass spectrometry analysis. […] After separation, the detection of substances was performed with an API 4000 tandem mass spectrometer (AB SCIEX, https://sciex.com/support/software-support/software-downloads), followed by quantification of results with the Analyst software (AB SCIEX, version 1.6.2). […]

[12] = target: T8, SLC22A18 (Homo sapiens, UniProt Q96BI1); assay: Uptake ratio screen, SLC22A18-overexpressing HEK293 over empty vector cells; type: cell-based; conditions: 2.5 μM (nicotine 10 μM), 2 min
T8 construct: by amplifying the entire gene-of-interest within the HEK293 genome via a long-range PCR
Description: as §1, §6, §7

[13] = target: T9, SLC19A2 (Homo sapiens, UniProt O60779); assay: Uptake ratio screen, SLC19A2-overexpressing HEK293 over empty vector cells; type: cell-based; conditions: 2.5 μM, 2 min
T9 construct: expressed in transfected cells
T9 sequence (O60779 1-497): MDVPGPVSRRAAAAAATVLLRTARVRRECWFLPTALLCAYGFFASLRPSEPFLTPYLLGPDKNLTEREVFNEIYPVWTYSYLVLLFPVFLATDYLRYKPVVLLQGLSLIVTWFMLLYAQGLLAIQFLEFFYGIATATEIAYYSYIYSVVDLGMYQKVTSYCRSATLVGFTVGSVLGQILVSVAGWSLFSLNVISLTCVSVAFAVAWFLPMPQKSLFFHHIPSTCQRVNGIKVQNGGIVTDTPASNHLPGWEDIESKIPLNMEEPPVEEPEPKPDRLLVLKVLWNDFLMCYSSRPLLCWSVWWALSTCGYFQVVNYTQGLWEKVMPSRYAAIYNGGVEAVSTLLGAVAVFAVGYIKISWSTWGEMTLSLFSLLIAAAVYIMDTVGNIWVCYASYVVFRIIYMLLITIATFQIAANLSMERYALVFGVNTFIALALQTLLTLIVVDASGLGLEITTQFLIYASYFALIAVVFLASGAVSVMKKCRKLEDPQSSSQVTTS
Description: as §1, §2, §5, §4

[14] = 2.5 μM substrate, 2 min, HEK293

T2 sequence (Q8IZD6 whole entry): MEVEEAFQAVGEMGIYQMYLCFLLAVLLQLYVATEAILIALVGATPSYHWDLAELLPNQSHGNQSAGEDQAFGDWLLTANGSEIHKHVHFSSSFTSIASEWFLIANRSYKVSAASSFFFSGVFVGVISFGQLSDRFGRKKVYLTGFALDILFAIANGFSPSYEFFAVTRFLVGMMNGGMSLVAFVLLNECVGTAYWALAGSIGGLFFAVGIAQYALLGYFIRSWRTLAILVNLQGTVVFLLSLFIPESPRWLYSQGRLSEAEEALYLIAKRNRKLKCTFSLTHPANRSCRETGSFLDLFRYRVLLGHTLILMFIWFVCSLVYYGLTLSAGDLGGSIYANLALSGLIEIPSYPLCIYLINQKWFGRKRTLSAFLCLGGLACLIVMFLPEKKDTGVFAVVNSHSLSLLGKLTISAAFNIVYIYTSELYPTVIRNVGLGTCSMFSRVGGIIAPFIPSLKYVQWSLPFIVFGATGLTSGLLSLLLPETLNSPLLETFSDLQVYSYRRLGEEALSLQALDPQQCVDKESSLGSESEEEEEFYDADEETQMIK
T1 sequence (Q8N808 whole entry): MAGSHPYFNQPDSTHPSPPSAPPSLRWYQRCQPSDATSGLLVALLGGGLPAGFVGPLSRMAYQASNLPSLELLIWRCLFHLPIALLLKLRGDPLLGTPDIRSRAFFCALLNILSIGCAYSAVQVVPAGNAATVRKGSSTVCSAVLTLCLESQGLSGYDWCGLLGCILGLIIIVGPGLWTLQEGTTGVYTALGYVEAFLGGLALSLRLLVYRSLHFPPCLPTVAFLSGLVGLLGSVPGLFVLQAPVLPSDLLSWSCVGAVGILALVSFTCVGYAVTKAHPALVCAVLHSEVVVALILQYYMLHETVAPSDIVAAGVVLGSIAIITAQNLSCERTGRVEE
SLC38A10, sequence (Q9HBR0 whole entry): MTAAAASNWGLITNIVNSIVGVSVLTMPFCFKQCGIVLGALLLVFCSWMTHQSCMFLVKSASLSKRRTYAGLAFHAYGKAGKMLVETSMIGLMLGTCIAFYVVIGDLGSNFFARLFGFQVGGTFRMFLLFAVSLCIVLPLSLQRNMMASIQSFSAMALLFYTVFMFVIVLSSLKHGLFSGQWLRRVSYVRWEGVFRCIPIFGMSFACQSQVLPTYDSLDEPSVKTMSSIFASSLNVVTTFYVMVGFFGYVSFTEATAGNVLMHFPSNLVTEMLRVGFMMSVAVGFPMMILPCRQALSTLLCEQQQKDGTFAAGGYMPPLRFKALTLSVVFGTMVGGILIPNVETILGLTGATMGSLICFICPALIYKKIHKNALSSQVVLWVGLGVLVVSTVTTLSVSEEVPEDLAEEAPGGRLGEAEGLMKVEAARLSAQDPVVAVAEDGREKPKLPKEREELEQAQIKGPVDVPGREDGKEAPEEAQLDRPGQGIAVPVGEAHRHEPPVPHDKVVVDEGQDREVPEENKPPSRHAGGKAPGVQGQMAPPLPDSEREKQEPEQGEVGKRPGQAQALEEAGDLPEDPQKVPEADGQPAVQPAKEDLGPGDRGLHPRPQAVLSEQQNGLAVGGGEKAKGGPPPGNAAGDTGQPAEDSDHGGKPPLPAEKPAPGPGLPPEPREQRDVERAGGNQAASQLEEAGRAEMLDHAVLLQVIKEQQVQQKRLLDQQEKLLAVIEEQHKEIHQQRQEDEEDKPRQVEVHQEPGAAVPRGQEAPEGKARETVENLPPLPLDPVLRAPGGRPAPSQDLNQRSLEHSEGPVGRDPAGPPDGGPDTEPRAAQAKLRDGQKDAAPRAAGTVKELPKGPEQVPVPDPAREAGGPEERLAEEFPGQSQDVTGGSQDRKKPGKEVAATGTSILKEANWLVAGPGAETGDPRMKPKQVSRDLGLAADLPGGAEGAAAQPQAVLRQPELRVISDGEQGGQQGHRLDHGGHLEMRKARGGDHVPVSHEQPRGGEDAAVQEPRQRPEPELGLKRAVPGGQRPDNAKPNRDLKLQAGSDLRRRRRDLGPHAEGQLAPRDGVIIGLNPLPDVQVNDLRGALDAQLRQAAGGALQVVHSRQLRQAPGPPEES
T4 sequence (P0CK97 whole entry): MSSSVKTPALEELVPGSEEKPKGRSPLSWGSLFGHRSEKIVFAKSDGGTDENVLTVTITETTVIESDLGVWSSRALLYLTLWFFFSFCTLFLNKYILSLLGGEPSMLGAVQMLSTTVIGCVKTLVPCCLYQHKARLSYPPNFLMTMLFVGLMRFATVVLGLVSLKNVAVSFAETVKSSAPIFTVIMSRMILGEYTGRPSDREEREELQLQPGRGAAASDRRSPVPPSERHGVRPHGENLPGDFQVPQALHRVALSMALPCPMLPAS
T8 sequence (Q96BI1 whole entry): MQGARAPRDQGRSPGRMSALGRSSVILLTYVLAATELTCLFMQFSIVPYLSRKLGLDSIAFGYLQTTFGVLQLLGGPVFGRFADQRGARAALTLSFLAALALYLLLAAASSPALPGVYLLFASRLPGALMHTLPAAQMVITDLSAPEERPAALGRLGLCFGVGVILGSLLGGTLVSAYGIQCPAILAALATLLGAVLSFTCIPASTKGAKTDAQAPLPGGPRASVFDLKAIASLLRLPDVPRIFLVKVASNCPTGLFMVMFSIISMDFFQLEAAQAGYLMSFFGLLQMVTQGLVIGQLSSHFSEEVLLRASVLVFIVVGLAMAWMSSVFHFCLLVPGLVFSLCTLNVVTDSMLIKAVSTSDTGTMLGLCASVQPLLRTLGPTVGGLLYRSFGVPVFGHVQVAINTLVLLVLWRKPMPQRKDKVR
T7 sequence (Q9BZV2 whole entry): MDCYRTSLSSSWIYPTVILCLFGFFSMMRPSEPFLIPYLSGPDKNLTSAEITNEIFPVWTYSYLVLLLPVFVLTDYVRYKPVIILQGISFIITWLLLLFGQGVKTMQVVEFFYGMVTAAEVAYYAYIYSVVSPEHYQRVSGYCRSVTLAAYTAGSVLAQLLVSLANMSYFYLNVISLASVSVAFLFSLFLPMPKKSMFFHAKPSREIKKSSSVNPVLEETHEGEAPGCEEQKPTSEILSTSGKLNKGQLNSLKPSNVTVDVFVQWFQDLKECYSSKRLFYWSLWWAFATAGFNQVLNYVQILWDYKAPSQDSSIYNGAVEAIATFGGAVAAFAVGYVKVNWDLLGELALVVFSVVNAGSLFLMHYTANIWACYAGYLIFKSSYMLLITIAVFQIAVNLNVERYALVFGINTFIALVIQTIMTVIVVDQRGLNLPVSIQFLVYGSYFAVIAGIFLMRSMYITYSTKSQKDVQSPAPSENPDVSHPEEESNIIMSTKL

CC(N)Cc1ccccc1 (stereo not drawn) [Amphetamine]
Uptake data for SLC35G3, mean value (fold-increase over empty vector control) [1, 14]: 1.28
Vmax (±SEM) [2]: 97.4 (±11.1) pmol × mg protein^-1 × min^-1

COC(=O)[C@H]1[C@@H](OC(=O)c2ccccc2)C[C@@H]2CC[C@H]1N2C [Cocaine]
Uptake by SLC22A15 (in words) [3]: significantly increased the uptake
Clint (±SEM) [4]: 2.58 (±2.11) μl × mg protein^-1 × min^-1
Uptake data for SLC35G3, mean value (fold-increase over empty vector control) [1, 14]: 2.02
Uptake by SLC35E2A (in words) [5]: relatively high activity
Uptake by SLC35F4 (in words) [6]: enhanced cell uptake
Uptake by SLC35F5 (in words) [7]: highest uptake rates
Clint (±SEM) [8]: 1.59 (±0.57) μl × mg protein^-1 × min^-1
Clint (±SEM) [9]: 4.14 (±1.59) μl × mg protein^-1 × min^-1

CN(C)CCOC(c1ccccc1)c1ccccc1 [Diphenhydramine]
Share of substrates exchanged (antiport) [10]: approximately 60%

CNC(C)Cc1ccc2c(c1)OCO2 (stereo not drawn) [MDMA, 3,4-methylenedioxymethamphetamine]
Uptake by SLC22A15 (in words) [3]: significantly increased the uptake
Uptake data for SLC35G3, mean value (fold-increase over empty vector control) [1]: 1.58
Uptake by SLC35F5 (in words) [7]: highest uptake rates
Clint (±SEM) [8]: 4.31 (±2.26) μl × mg protein^-1 × min^-1

C[n+]1ccc(-c2ccccc2)cc1 [MPP^+, 1-methyl-4-phenylpyridinium]
Uptake by SLC19A3 (in words) [11]: moderate

COC(=O)C(c1ccccc1)C1CCCCN1 (stereo not drawn) [Methylphenidate]
Uptake by SLC22A18 (in words) [12]: newly identified substrates
Uptake by SLC19A2 (in words) [13]: enhance cell uptake
Uptake data for SLC35G3, mean value (fold-increase over empty vector control) [1, 14]: 1.31
Uptake by SLC35F4 (in words) [6]: enhanced cell uptake
Uptake by SLC35F5 (in words) [7]: highest uptake rates

CN1CCC[C@H]1c1cccnc1 [Nicotine]
Uptake by SLC22A15 (in words) [3]: significantly increased the uptake
Uptake by SLC22A18 (in words) [12]: newly identified substrates
Vmax (±SEM) [2]: 48.4 (±7.26) pmol × mg protein^-1 × min^-1
Clint (±SEM) ([2]; SLC38A10, ratio of Vmax over KM): 0.78 (±0.57) μl × mg protein^-1 × min^-1

COc1ccc2c3c1O[C@H]1C(=O)CC[C@@]4(O)[C@@H](C2)N(C)CC[C@]314 [Oxycodone]
Uptake by SLC22A15 (in words) [3]: significantly increased the uptake
Uptake by SLC19A2 (in words) [13]: enhance cell uptake
Uptake data for SLC35G3, mean value (fold-increase over empty vector control) [1, 14]: 1.86
Uptake by SLC35E2A (in words) [5]: relatively high activity
Clint (±SEM) [9]: 3.44 (±1.49) μl × mg protein^-1 × min^-1
